From patent publication US6387943B1, “Vancoresmycin, a process for its production and its use as a pharmaceutical” (Aventis Pharma Deutschland GmbH, priority 1998, dated 2002)
≈ marks a conversion by molar mass, not a printed value.

Key:
[1] = system: S. aureus Chantot 31153; test: Minimum inhibitory concentration (MIC); assay type: cell-based; conditions: Staphylococcus aureus, CHANTOT31153
[2] = system: S. aureus SG511; test: Minimum inhibitory concentration (MIC); assay type: cell-based; conditions: Staphylococcus aureus
[3] = system: Ent. durans 4939H; test: Minimum inhibitory concentration (MIC); assay type: cell-based; conditions: Enterococcus durans
[4] = system: S. warneri 6563 II (2); test: Minimum inhibitory concentration (MIC); assay type: cell-based; conditions: Staphylococcus warneri
[5] = system: Ent. faecium 5601 (H); test: Minimum inhibitory concentration (MIC); assay type: cell-based; conditions: Enterococcus faecium
[6] = system: Ent. faecium D-65; test: Minimum inhibitory concentration (MIC); assay type: cell-based; conditions: Enterococcus faecium, D65
[7] = system: S. epidermidis 5747 IW; test: Minimum inhibitory concentration (MIC); assay type: cell-based; conditions: Staphylococcus epidermidis
[8] = system: S. aureus Wein 11; test: Minimum inhibitory concentration (MIC); assay type: cell-based; conditions: Staphylococcus aureus, WEIN11
[9] = system: Ent. hirae 55; test: Minimum inhibitory concentration (MIC); assay type: cell-based; conditions: Enterococcus hirae
[10] = system: S. aureus Brussel 4115; test: Minimum inhibitory concentration (MIC); assay type: cell-based; conditions: Staphylococcus aureus, BRUSSEL4115
[11] = system: S. aureus 3066; test: Minimum inhibitory concentration (MIC); assay type: cell-based; conditions: Staphylococcus aureus; S. aureus 3066 (resistant strain to methicillin)
[12] = system: S. aureus 20424; test: Minimum inhibitory concentration (MIC); assay type: cell-based; conditions: Staphylococcus aureus
[13] = system: S. aureus E-712; test: Minimum inhibitory concentration (MIC); assay type: cell-based; conditions: Staphylococcus aureus, E712
[14] = system: S. epidermidis 607; test: Minimum inhibitory concentration (MIC); assay type: cell-based; conditions: Staphylococcus epidermidis
[15] = system: E. coli super sen. 2231; test: Minimum inhibitory concentration (MIC); assay type: cell-based; conditions: Escherichia coli
[16] = system: Pseudomonas aeruginosa M35; test: Minimum inhibitory concentration (MIC); assay type: cell-based
[17] = system: S. aureus 503(Mers); test: Minimum inhibitory concentration (MIC); assay type: cell-based
[18] = system: Ent. faecalis D 21777; test: Minimum inhibitory concentration (MIC); assay type: cell-based; conditions: Enterococcus faecalis, D21777
[19] = system: Ent. faecalis D 756; test: Minimum inhibitory concentration (MIC); assay type: cell-based; conditions: Enterococcus faecalis, D756
[20] = system: Ent. faecalis D 26777; test: Minimum inhibitory concentration (MIC); assay type: cell-based; conditions: Enterococcus faecalis, D26777
[21] = system: Enterococcus faecalis ATCC 29212; test: Minimum inhibitory concentration (MIC); assay type: cell-based; conditions: ATCC29212
[22] = system: vancomycin- and teicoplanin-resistant strains; test: Antibiotic activity against resistant strains; assay type: cell-based
[23] = system: S. epidermidis 823; test: Minimum inhibitory concentration (MIC); assay type: cell-based; conditions: Staphylococcus epidermidis
[24] = system: Ent. faecalis D 7F; test: Minimum inhibitory concentration (MIC); assay type: cell-based; conditions: Enterococcus faecalis, D7F
[25] = system: S. aureus E-710; test: Minimum inhibitory concentration (MIC); assay type: cell-based; conditions: Staphylococcus aureus, E710
[26] = system: S. haemolyticus 809; test: Minimum inhibitory concentration (MIC); assay type: cell-based; conditions: Staphylococcus haemolyticus
[27] = system: Escherichia coli 9632; test: Minimum inhibitory concentration (MIC); assay type: cell-based
[28] = system: Ent. faecium P-1; test: Minimum inhibitory concentration (MIC); assay type: cell-based; conditions: Enterococcus faecium, P1
[29] = system: Ent. faecium P-2; test: Minimum inhibitory concentration (MIC); assay type: cell-based; conditions: Enterococcus faecium, P2
[30] = Solubility (physico-chemical properties); assay type: physicochemical; conditions: solvents in which soluble
[31] = system: S. aureus 20240; test: Minimum inhibitory concentration (MIC); assay type: cell-based; conditions: Staphylococcus aureus
[32] = system: S. aureus MLS-16; test: Minimum inhibitory concentration (MIC); assay type: cell-based; conditions: Staphylococcus aureus, MLS16
[33] = system: Ent. faecium VR-1; test: Minimum inhibitory concentration (MIC); assay type: cell-based; conditions: Enterococcus faecium, VR1; Ent. faecium VR-1 (resistant to vancomycin)
[34] = system: Staphylococcus aureus 209P; test: Minimum inhibitory concentration (MIC); assay type: cell-based
[35] = system: S. epidermidis 825; test: Minimum inhibitory concentration (MIC); assay type: cell-based; conditions: Staphylococcus epidermidis
[36] = system: S. aureus Wein 12; test: Minimum inhibitory concentration (MIC); assay type: cell-based; conditions: Staphylococcus aureus, WEIN12
[37] = system: Ent. faecalis D 23241; test: Minimum inhibitory concentration (MIC); assay type: cell-based; conditions: Enterococcus faecalis, D23241

With `C/C(=C\CC(O)CC(O)CCC(C)C(O)C(C)C(O)CCCC(O)C(C)C(O)/C(C)=C/C(C)C(=O)/C(C)=C/C(O)C(O)CC(O)CC(OC1OC(C)C(O)C(N)C1O)C(C)CCC(O)CC(O)CCC(C)C(O)C(C)C(O)C(C)C)C(=O)C1=C(O)/C(=C/C(C)C)N(C)C1=O` (stereo not shown) [Vancoresmycin] the MIC [1] was 0.05 µg/mL (≈ 0.0372 µM), the MIC [2] was 0.05 µg/mL (≈ 0.0372 µM) and the MIC [3] was 0.39 µg/mL (≈ 0.29 µM). It also gave an MIC [4] of 0.1 µg/mL (≈ 0.0744 µM), an MIC [5] of 0.39 µg/mL (≈ 0.29 µM) and an MIC [6] of 0.39 µg/mL (≈ 0.29 µM). For the same molecule, the MIC [7] was 0.1 µg/mL (≈ 0.0744 µM), the MIC [8] was 0.05 µg/mL (≈ 0.0372 µM) and the MIC [9] was 0.39 µg/mL (≈ 0.29 µM). For the same molecule, the MIC [10] was 0.05 µg/mL (≈ 0.0372 µM), the MIC [11] was 0.1 µg/mL (≈ 0.0744 µM) and the MIC [12] was 0.1 µg/mL (≈ 0.0744 µM). The MIC [13] was 0.1 µg/mL (≈ 0.0744 µM), the MIC [14] was 0.1 µg/mL (≈ 0.0744 µM) and the MIC [15] was > 100 µg/mL. For the same molecule, the MIC [16] was > 100 µg/mL, the MIC [17] was 0.025 µg/mL (≈ 0.0186 µM) and the MIC [18] was 0.39 µg/mL (≈ 0.29 µM). It also gave an MIC [19] of 0.39 µg/mL (≈ 0.29 µM), an MIC [20] of 0.39 µg/mL (≈ 0.29 µM) and an MIC [21] of 0.39 µg/mL (≈ 0.29 µM). For the same molecule, the antibiotic activity [22] was “active”, the MIC [23] was 0.2 µg/mL (≈ 0.149 µM) and the MIC [24] was 0.39 µg/mL (≈ 0.29 µM). For the same molecule, the MIC [25] was 0.1 µg/mL (≈ 0.0744 µM), the MIC [26] was 0.05 µg/mL (≈ 0.0372 µM) and the MIC [27] was > 100 µg/mL. The MIC [28] was 0.39 µg/mL (≈ 0.29 µM), the MIC [29] was 0.39 µg/mL (≈ 0.29 µM) and the Solubility [30] was “Methanol, DMSO”. The MIC [31] was 0.05 µg/mL (≈ 0.0372 µM), the MIC [32] was 0.39 µg/mL (≈ 0.29 µM) and the MIC [33] was 0.39 µg/mL (≈ 0.29 µM). It also gave an MIC [34] of 0.05 µg/mL (≈ 0.0372 µM), an MIC [35] of 0.1 µg/mL (≈ 0.0744 µM) and an MIC [36] of 0.05 µg/mL (≈ 0.0372 µM). For the same molecule, the MIC [37] was 0.39 µg/mL (≈ 0.29 µM).
